Data published in patent publication US11384115B2, “Nuclear sulfated oxysterol, potent regulator of lipid homeostasis, for therapy of hypercholesterolemia, hypertriglycerides, fatty liver diseases, and atherosclerosis” (Virginia Commonwealth University, priority 2004, dated 2022).

Key:
SREBP-1 = assay: Western blot of SREBP-1 activation in HepG2 cells; format: cell-based, human; details: for mature forms of SREBP-1: HepG2, dose dependent
Description: FIGS. 18A-18D. Western blot analysis of SREBPs activation following 25HC3S or 25HC treatment in HepG2 cells. […] SREBP-1 and SREBP-2 protein levels in the cells were determined by Western blot analysis. The extracted protein (100 μg) was loaded onto each lane for each condition as indicated. The data represent a typical result from one of three independent experiments. The trends of the protein levels are highly reproducible.
Microsomal proteins (80 μg) were separated on a 7.5% SDS-polyacrylamide denaturing gel according to the method of Laemmli (14). Following SDS-PAGE (Hoefer Vertical Slab Gel Unit; Heofer, San Francisco, Calif.), proteins were electrophoretically transferred overnight (4° C.) to Immobilon-P membranes using a Hoefer Trans Blot Electrophoretic Transfer cell. The membranes were then blocked for 90 minutes (25° C.) in blocking buffer (PBS, pH 7.4, 0.1% Tween, 5% non-fat dry milk). Proteins were then incubated for 90 minutes (25° C.) or overnight (4° C.) with a rabbit polyclonal IgG (1:2500-1:20,000) against human SREBP-1, SREBP-2, or HMG CoA reductase. After washing, a secondary antibody (goat anti-rabbit IgG-Horse-radish peroxidase conjugate, 1:2500) was added to the blocking solution (25° C., 90 minutes). Protein bands were detected using the Amersham ECL plus Kit.

PPARγ = biological target: T1, PPARγ (Homo sapiens, UniProt P37231); assay: Western blot of nuclear PPARγ levels in THP-1 macrophages; format: cell-based; details: for nuclear PPARγ protein levels: THP-1 macrophages, 4 hrs
T1 construct: THP-1 monocytes were differentiated to macrophages by adding 100 nM of phorbol 12-myristate 13-acetate (PMA); endogenous in cells; host or cells: THP-1 monocyte-derived macrophages (human, ATCC)
T1 sequence (P37231 1-505): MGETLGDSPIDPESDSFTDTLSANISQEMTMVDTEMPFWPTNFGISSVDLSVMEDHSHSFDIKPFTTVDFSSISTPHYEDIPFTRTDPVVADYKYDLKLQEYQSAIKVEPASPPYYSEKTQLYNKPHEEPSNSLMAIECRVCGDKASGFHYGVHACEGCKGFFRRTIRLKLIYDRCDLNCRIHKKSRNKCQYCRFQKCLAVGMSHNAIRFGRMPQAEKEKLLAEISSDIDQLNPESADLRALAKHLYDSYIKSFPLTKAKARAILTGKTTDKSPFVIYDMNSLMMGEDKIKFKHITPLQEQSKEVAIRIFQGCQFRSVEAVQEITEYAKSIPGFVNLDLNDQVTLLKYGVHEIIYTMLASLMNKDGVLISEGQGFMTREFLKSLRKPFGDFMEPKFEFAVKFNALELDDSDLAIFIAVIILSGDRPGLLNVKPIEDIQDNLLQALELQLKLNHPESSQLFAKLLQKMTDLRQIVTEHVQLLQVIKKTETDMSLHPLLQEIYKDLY
Description: FIGS. 21A and 21B. Effects of 25HC3S and 25HC on PPARγ protein levels in THP-1 macrophages. A, THP-1 macrophages were treated with 25HC3S (top panel) or 25HC (middle panel) at different concentration as indicated for 4 hrs. The nuclear PPARγ levels were analyzed by Western blot. […] Expression levels were normalized to Lamin as shown in the bottom panels. The data represent one typical result out of three experiments.
Human THP-1 monocytes and H441 cells were purchased from the American Type Culture Collection (Manassas, Va.) and maintained according to the supplier's protocols. THP-1 monocytes were differentiated to macrophages by adding 100 nM of phorbol 12-myristate 13-acetate (PMA). When cells reached 90% confluence, oxysterols in DMSO or in ethanol (the final concentration in media was <0.1%) were added as indicated. The cells were harvested at the times as indicated. Nuclear and cytosolic fractions were isolated using NE-PER®, Nuclear and Cytoplasmic Extraction Reagents (Pierce, Rockford, Ill. Western blot analysis of nuclear PPAR and intracellular I B levels
Fifty μg of total cell lysates or nuclear protein extracts, otherwise as indicated, were separated on 10% SDS-PAGE gels and transferred onto a polyvinylidene difluoride membrane as described previously. Membranes were blocked in TBS containing 5% of nonfat dried milk for 1 hr. The specific proteins were determined by incubation with specific antibodies against human PPAR or IκB overnight at 4° C. with shaking. After washing, the membrane was incubated in a 1:3,000 dilution of a secondary antibody (goat anti-rabbit or anti-mouse IgG-HP conjugate; Bio-Rad, Hercules, Calif.) at room temperature for 1 hr in the washing buffer (Tris buffered solution containing 0.5% Tween 20). The protein bands were visualized using Western Lightening Chemiluminescence Reagent (Perkin-Elmer, Waltham, Mass.). The expression levels were normalized to Lamin.

IκB = IκB mRNA (RT-PCR) and protein (Western blot) in THP-1 macrophages; format: cell-based, human; details: for IκB protein levels: Western blot, 24 hrs; for increase of IκB mRNA levels: macrophages; for IκB mRNA level: real time RT-PCR, 6 hrs
Description: FIG. 25A-C. […] The Western blot data represents one of three experiments.
Fifty μg of total cell lysates or nuclear protein extracts, otherwise as indicated, were separated on 10% SDS-PAGE gels and transferred onto a polyvinylidene difluoride membrane as described previously [31]. Membranes were blocked in TBS containing 5% of nonfat dried milk for 1 hr. The specific proteins were determined by incubation with specific antibodies against human PPAR or IκB overnight at 4° C. with shaking. After washing, the membrane was incubated in a 1:3,000 dilution of a secondary antibody (goat anti-rabbit or anti-mouse IgG-HP conjugate; Bio-Rad, Hercules, Calif.) at room temperature for 1 hr in the washing buffer (Tris buffered solution containing 0.5% Tween 20). The protein bands were visualized using Western Lightening Chemiluminescence Reagent (Perkin-Elmer, Waltham, Mass.). The expression levels were normalized to Lamin.
Total RNA was isolated from THP-1 derived macrophages following treatments for 6 hrs otherwise as indicated using SV Total RNA Isolation Kit (Promega, Wisconsin, Wis.), which includes DNase treatment. Two microgram of total RNA was used for first-strand cDNA synthesis as recommended by manufacturer (Invitrogen, Carlsbad, Calif.). Real-time RT-PCR was performed using SYBR Green as indicator on ABI 7500 Fast Real-Time PCR System (Applied Biosystems, Foster City, Calif.). The final reaction mixture contained 10 ng of cDNA, 100 nM of each primer, 10 μl of 2×SYBR® Green PCR Master Mix (Applied Biosystems, Foster City, Calif.), and RNase-free water to complete the reaction mixture volume to 20 μl. All reactions were performed in triplicate. PCR was carried out for 40 cycles of 95° C. for 15 s and 60° C. for 1 min. The fluorescence was read during the reaction, allowing a continuous monitoring of the amount of PCR product. The data was normalized to internal control GAPDH.

Row | SMILES | mature forms of SREBP-1 (SREBP-1) | inhibition of SREBP-1 activation (SREBP-1; HepG2, media containing 50 μM of mevinolin and 0.5 μM of mevalonate) | nuclear PPARγ protein levels (PPARγ) | nuclear PPARγ levels in the presence of the antagonist T0070907 (PPARγ; preincubated with 1 μM of T0070907 for 2 hrs) | IκB protein levels (IκB) | increase of IκB mRNA levels (IκB; 12 μM) | increase of IκB mRNA levels (IκB; in the presence of TNFα) | IκB mRNA level (IκB) | rosiglitazone-increased nuclear PPARγ levels (PPARγ; preincubated with 1 μM of rosiglitazone for 2 hrs, 25HC for 4 hrs)
1 | C[C@H](CCCC(C)(C)O)[C@H]1CC[C@H]2[C@@H]3CC=C4C[C@@H](OS(=O)(=O)O)CC[C@]4(C)[C@H]3CC[C@]12C [25HC3S, 5-cholesten-3β, 25-diol 3-sulphate] | decreases | more potent inhibition on SREBP-1 activation than 25HC | substantially increased | failed to increase the nuclear PPARγ levels to its maxima | increased | 2.5 folds | 6 folds | significantly increased | 
2 | C[C@H](CCCC(C)(C)O)[C@H]1CC[C@H]2[C@@H]3CC=C4C[C@@H](O)CC[C@]4(C)[C@H]3CC[C@]12C [25HC, 25-hydroxycholesterol, reference compound] | decreases |  | decreased |  | decreased |  |  | no significantly changed | significantly inhibited
